In PubChem BioAssay AID264 (DTP/NCI, 2004) one finds T/C data, which are given here for 27 compounds.

This assay has as its system nude mice, LX-1 lung xenograft intrarenal, tumor weight T/C. In words: NCI In Vivo Anticancer Drug Screen. Data for tumor model Human Lung LX-1 Xenograft (intrarenal inoculation) in NU/NU Swiss (nude) mice. To be noted: endpoint: mean tumor weight change, higher = larger tumour. In a few lines: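 Tumor-bearing mice receive test compound or vehicle; tumor size is then measured in each group. The treated value is divided by the vehicle value to give T/C.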
(Xenograft models place foreign cells or tissue in a host animal.)

The mark [1] stands for this setting: dose: 300.0 mg/kg/injection, schedule: Q04DX003 (sc), vehicle: saline with Tween-80.
The mark [2] stands for this setting: dose: 600.0 mg/kg/injection, schedule: Q04DX003 (sc), vehicle: saline with Tween-80.
Where [3] appears, read: dose: 1200.0 mg/kg/injection, schedule: Q04DX003 (sc), vehicle: saline with Tween-80.
Setting [4] is: dose: 300.0 mg/kg/injection, schedule: Q04DX003 (sc), vehicle: Klucel (hydroxypropylcellulose) (HPC).
Setting [5] is: dose: 600.0 mg/kg/injection, schedule: Q04DX003 (sc), vehicle: Klucel (hydroxypropylcellulose) (HPC).
Where [6] appears, read: dose: 1200.0 mg/kg/injection, schedule: Q04DX003 (sc), vehicle: Klucel (hydroxypropylcellulose) (HPC).
Setting [7] is: dose: 18.75 mg/kg/injection, schedule: Q04DX003 (sc), vehicle: suspension in saline.
Setting [8] is: dose: 200.0 mg/kg/injection, schedule: Q04DX003 (sc), vehicle: saline with Tween-80.
Where [9] appears, read: dose: 800.0 mg/kg/injection, schedule: Q04DX003 (sc), vehicle: saline with Tween-80.

Molecules are shown by their SMILES. Values joined by “and” are separate entries in the source; they are usually repeats but may differ in a detail not shown here. Equal entries are not always repeated. Inconclusive results are not listed.

For the compound `Cn1/c2cc/c1=C(\c1ccc(S(=O)(=O)O)cc1)c1ccc([n-]1)/C(c1ccc(S(=O)(=O)O)cc1)=c1/cc/c([nH]1)=C(\c1ccc(S(=O)(=O)O)cc1)c1ccc([n-]1)/C=2c1ccc(S(=O)(=O)O)cc1.O.O=S(=O)(O)C(F)(F)F.[Cu+2]`, the T/C is 100 % of control (dose: 200.0 mg/kg/injection, schedule: Q04DX003 (sc), vehicle: suspension in saline); 109 % of control (dose: 400.0 mg/kg/injection, schedule: Q04DX003 (sc), vehicle: suspension in saline); 94 % of control (dose: 800.0 mg/kg/injection, schedule: Q04DX003 (sc), vehicle: suspension in saline).
As to `CCC1=C2C(=O)c3ccccc3C2=C(C)S(=O)(=O)O1`, the T/C reads like this: under setting [1], 66 % of control; under setting [2], 70 % of control; under setting [3], 89 % of control; (dose: 2400.0 mg/kg/injection, schedule: Q04DX003 (sc), vehicle: saline with Tween-80) 86 % of control.
For the compound `CC1=C[S+](c2ccccc2)c2cccc3cc4ccccc4c1c23` (stereo not given), for the setting “dose: 2.0 mg/kg/injection, schedule: Q04DX003 (sc), vehicle: saline with Tween-80”, the T/C was 102 % of control.
In the case of `CCCNC1=C(C)C(=O)C2=C(C1=O)[C@H](COC(N)=O)[C@]1(OC)[C@@H]3N[C@@H]3CN21`, the T/C was 32 % of control (dose: 3.0 mg/kg/injection, schedule: Q04DX003 (sc), vehicle: suspension in saline); 5 % of control and 17 % of control and 28 % of control (dose: 24.0 mg/kg/injection, schedule: Q04DX003 (sc), vehicle: suspension in saline).
For the compound `COc1cc(C(=O)c2cc3c(cc2C)OCO3)cc(OC)c1OC`, the T/C (dose: 150.0 mg/kg/injection, schedule: Q04DX003 (sc), vehicle: Klucel (hydroxypropylcellulose) (HPC)) is 78 % of control; the T/C under setting [4] is 71 % of control; the T/C under setting [5] was 80 % of control; the T/C under setting [6] is 82 % of control.
Take `c1ccc([C@H]2CN3CCSC3=N2)cc1`: the T/C was 103 % of control (dose: 30.0 mg/kg/injection, schedule: Q04DX003 (sc), vehicle: saline) and 121 % of control (dose: 60.0 mg/kg/injection, schedule: Q04DX003 (sc), vehicle: saline).
As to `O=C1OC(C(O)CO)C(O)=C1O` (stereo not given), the T/C was 205 % of control (dose: 400.0 mg/kg/injection, schedule: Q01DX010 (sc), vehicle: saline); 110 % of control (dose: 800.0 mg/kg/injection, schedule: Q01DX010 (sc), vehicle: saline); 153 % of control (dose: 1600.0 mg/kg/injection, schedule: Q01DX010 (sc), vehicle: saline).
On to `CCC1=C[C@H]2CN(CCc3c([nH]c4ccccc34)[C@@](C(=O)OC)(c3cc4c(cc3OC)N(C)[C@H]3[C@@](O)(C(=O)NC)[C@H](OC(C)=O)[C@]5(CC)C=CCN6CC[C@]43[C@@H]65)C2)C1`, for which the T/C reads like this: (dose: 0.5 mg/kg/injection, schedule: Q04DX003 (sc), vehicle: water) 63 % of control; (dose: 1.0 mg/kg/injection, schedule: Q04DX003 (sc), vehicle: water) 67 % of control; (dose: 4.0 mg/kg/injection, schedule: Q04DX003 (sc), vehicle: water) 10 % of control.
Take `Cn1cc(C2NC(=O)c3ccccc3N2)c2ccccc21` (stereo not given): the T/C under setting [4] was 31 % of control, the T/C under setting [5] was 32 % of control and the T/C under setting [6] is -36 % of control.
In the case of `CN1C(=O)CC2(CCN(CCCC(=O)c3ccc(F)cc3)CC2)C1=O`, the T/C under setting [7] is 33 % of control; the T/C (dose: 75.0 mg/kg/injection, schedule: Q04DX003 (sc), vehicle: suspension in saline) is 85 % of control; the T/C (dose: 150.0 mg/kg/injection, schedule: Q04DX003 (sc), vehicle: suspension in saline) was 77 % of control.
Consider `Cc1ccc(N)c(N)c1`, for which the T/C is 57 % of control under setting [8]; 74 % of control (dose: 400.0 mg/kg/injection, schedule: Q04DX003 (sc), vehicle: saline with Tween-80); 57 % of control under setting [9].
Regarding `OCCN1CCN(CCCN2c3ccccc3Sc3ccc(C(F)(F)F)cc32)CC1`, the T/C runs as follows: (dose: 20.0 mg/kg/injection, schedule: Q01DX010 (sc), vehicle: saline) 69 % of control; (dose: 40.0 mg/kg/injection, schedule: Q01DX010 (sc), vehicle: saline) 75 % of control.
With `CC(=O)OCC1OC(n2cc(CBr)nn2)C(OC(C)=O)C(OC(C)=O)C1OC(C)=O` (stereo not given), the T/C reads like this: (dose: 50.0 mg/kg/injection, schedule: Q01DX010 (sc), vehicle: saline with Tween-80) 177 % of control; (dose: 100.0 mg/kg/injection, schedule: Q01DX010 (sc), vehicle: saline with Tween-80) 101 % of control; (dose: 400.0 mg/kg/injection, schedule: Q01DX010 (sc), vehicle: saline with Tween-80) 46 % of control.
`O=C(O)CSc1nc(-c2ccccc2)c(-c2ccccc2)n1-c1ccccn1`: the T/C reads like this: (dose: 50.0 mg/kg/injection, schedule: Q01DX010 (sc), vehicle: water) 94 % of control; (dose: 100.0 mg/kg/injection, schedule: Q01DX010 (sc), vehicle: water) 60 % of control.
Consider `O=C1c2cccc3cc([N+](=O)[O-])cc(c23)C(=O)N1CCN1CCCC1`, for which the T/C (dose: 9.0 mg/kg/injection, schedule: Q04DX003 (sc), vehicle: saline with Tween-80) is 104 % of control; the T/C (dose: 18.0 mg/kg/injection, schedule: Q04DX003 (sc), vehicle: saline with Tween-80) is 75 % of control; the T/C (dose: 36.0 mg/kg/injection, schedule: Q04DX003 (sc), vehicle: saline with Tween-80) is 74 % of control; the T/C (dose: 72.0 mg/kg/injection, schedule: Q04DX003 (sc), vehicle: saline with Tween-80) was 76 % of control.
As to `CC1=CC2C(O)(CC(CO)=CC3C4C(C)(C)C4(OC(=O)c4ccccc4)C(OC(=O)c4ccccc4)C(C)C32O)C1=O` (stereo not given), the T/C runs as follows: (dose: 1.25 mg/kg/injection, schedule: Q04DX003 (sc), vehicle: saline with Tween-80) 77 % of control; (dose: 2.5 mg/kg/injection, schedule: Q04DX003 (sc), vehicle: saline with Tween-80) 73 % of control; (dose: 5.0 mg/kg/injection, schedule: Q04DX003 (sc), vehicle: saline with Tween-80) 76 % of control; (dose: 10.0 mg/kg/injection, schedule: Q04DX003 (sc), vehicle: saline with Tween-80) 43 % of control.
For the compound `O=C1[C@H]2CCC[C@H]2[C@H]2CCC[C@@H]12`, the T/C runs as follows: under setting [8], 166 % of control; under setting [9], 120 % of control; (dose: 1600.0 mg/kg/injection, schedule: Q04DX003 (sc), vehicle: saline with Tween-80) 98 % of control.
For `O=NN(CCCl)C(=O)NCCO`, the T/C (dose: 3.12 mg/kg/injection, schedule: Q04DX003 (sc), vehicle: water) was 49 % of control and 65 % of control.
Turning to `NC(=S)N/N=C/c1ccc(OC(=O)COc2ccc(Cl)cc2)cn1`, the T/C reads like this: under setting [1], 54 % of control; under setting [2], 44 % of control; under setting [3], 23 % of control.
For the compound `C[C@]12CCC(=O)C=C1CC[C@@H]1[C@@H]2C(=O)C[C@@]2(C)[C@H]1CC[C@]2(O)C(=O)CO`, the T/C by setting is: under setting [4], 38 % of control; under setting [5], 34 % of control; under setting [6], 52 % of control.
On to `O=CC(O)C(O)C(O)C(O)C(=O)O.[NH-]C1CCCCC1[NH-].[Pt+2]` (stereo not given), for which the T/C runs as follows: (dose: 9.38 mg/kg/injection, schedule: Q04DX003 (sc), vehicle: suspension in saline) 39 % of control; under setting [7], 46 % of control.
Take `C=C(C(=O)O)C(N)C(=O)O` (stereo not given): under “dose: 1200.0 mg/kg/injection, schedule: Q04DX003 (sc), vehicle: suspension in saline”, the T/C is 76 % of control.
As for `O=c1ssc(=Nc2ccccc2)n1-c1ccccc1`, the T/C (dose: 100.0 mg/kg/injection, schedule: Q01DX010 (sc), vehicle: Klucel (hydroxypropylcellulose) (HPC)) is 77 % of control and the T/C (dose: 400.0 mg/kg/injection, schedule: Q01DX010 (sc), vehicle: Klucel (hydroxypropylcellulose) (HPC)) was 97 % of control.
As to `O=c1[nH]cnc2c1ccn2C1OC(CO)C(O)C1O` (stereo not given), the T/C by setting is: (dose: 12.5 mg/kg/injection, schedule: Q04DX003 (sc), vehicle: saline) 88 % of control; (dose: 50.0 mg/kg/injection, schedule: Q04DX003 (sc), vehicle: saline) 47 % of control.
`CCOC(=O)[C@]1(Br)CC[C@@]1(Br)C(=O)OCC`: the T/C was 107 % of control under setting [9] and 123 % of control under setting [3].
For `C=C[Si]12OCCN(CCO1)CCO2`, the T/C runs as follows: under setting [4], 250 % of control; under setting [5], 212 % of control; under setting [6], 163 % of control.
On to `[N-]=[N+]=C1N=CN=C1c1ncn[nH]1`, for which the T/C reads like this: (dose: 12.5 mg/kg/injection, schedule: Q01DX010 (sc), vehicle: Klucel (hydroxypropylcellulose) (HPC)) 153 % of control; (dose: 50.0 mg/kg/injection, schedule: Q01DX010 (sc), vehicle: Klucel (hydroxypropylcellulose) (HPC)) 55 % of control.
